Assays:
feral hogs = test: studies using the instant feral hog control system with low dose warfarin bait; format: in vivo, Sus scrofa
Source text: As to particular studies, death of the feral hogs (2) occurred within not greater than about five days following exposure to the bait (3).

feral pigs [1] = conditions: bait containing 0.13% warfarin by weight of the bait; McIlroy et al.; cited from earlier work
feral pigs [2] = conditions: bait containing 0.09% warfarin by weight of the bait; Saunders et al.; cited from earlier work
[3] = bait with about 0.005% warfarin by weight of the bait
[4] = bait with about 0.01% warfarin by weight of the bait

CC(=O)CC(c1ccccc1)c1c(O)c2ccccc2oc1=O (stereo not drawn) [warfarin]
death of the feral hogs following exposure to the bait (feral hogs; [3]): ten | mortality rate (feral hogs; [3]): 100% | death of the feral hogs following exposure to the bait, particular studies (feral hogs; [3]): five | death of the feral hogs following exposure to the bait (feral hogs; [4]): ten | mortality rate (feral hogs; [4]): 100% | death of the feral hogs following exposure to the bait, particular studies (feral hogs; [4]): five | feral pigs dying (feral pigs [1]): 30 of 32 | time of dying after bait distribution (mean±s.e.) (feral pigs [1]): 9.7 ± 0.4 days | first death recorded after bait distribution (feral pigs [2]): six

From patent publication US20180049425A1, “Bait Composition” (priority 2016, published 2018)
